Experimental data as given in patent publication US20100249093A1, “Substituted Heteroarylpiperidine Derivatives As Melanocortin-4 Receptor Modulators” (SANTHERA PHARMACEUTICALS (SCHWEIZ) AG, priority 2007, published 2010).

Key:
[1] = biological target: T1, human melanocortin-4 receptor (MC-4R) (Homo sapiens, UniProt P32245); assay: Functional assay: agonistic activity, cAMP production in membrane preparations compared with NDP-alpha-MSH, fluorescence polarization; type: biochemical; conditions: for Emax: cAMP produced compared to stimulation with NDP-alpha-MSH, read-out: % activation functional assay
T1 construct: expressed in transfected cells; host or cells: HEK293
T1 sequence (P32245 whole entry): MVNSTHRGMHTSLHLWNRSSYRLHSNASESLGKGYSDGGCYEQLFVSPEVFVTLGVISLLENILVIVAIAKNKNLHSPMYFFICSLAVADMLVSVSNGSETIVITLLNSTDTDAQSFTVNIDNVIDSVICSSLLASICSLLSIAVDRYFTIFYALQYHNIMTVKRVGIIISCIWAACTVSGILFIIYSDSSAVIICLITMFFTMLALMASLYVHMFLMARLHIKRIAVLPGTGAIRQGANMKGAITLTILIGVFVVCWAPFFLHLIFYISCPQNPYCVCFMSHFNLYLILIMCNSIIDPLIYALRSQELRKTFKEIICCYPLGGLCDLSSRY

[2] = biological target: T1, human melanocortin-4 receptor (MC-4R); assay: Membrane binding assay: competition with fluorescence labeled NDP-alpha-MSH, fluorescence polarization; conditions: HEK293 cell membrane preparations expressing human MC-4R, read-out: hMC-4R binding assay IC50

| SMILES | Emax [1] | IC50 [2] | EC50 ([1]; cAMP production, membrane preparations from HEK293 cells expressing human MC-4R, read-out: hMC-4R functional assay EC50) |
| --- | --- | --- | --- |
| CC[C@H](COc1cccnc1C1CCN(C(=O)[C@@H](Cc2ccc(Cl)cc2Cl)NC(=O)N2CC[C@H](CO)C2)CC1)N(C)C [Example 114] | -3% | ≤ 100 nM | – |
| CC[C@H](COc1cccnc1C1CCN(C(=O)[C@@H](Cc2ccc(Cl)cc2Cl)NC(=O)N2CC[C@@H](CO)C2)CC1)N(C)C [Example 115] | -8% | ≤ 100 nM | – |
| CC[C@H](COc1cccnc1C1CCN(C(=O)[C@@H](Cc2ccc(Cl)cc2Cl)NC(=O)N2CC[C@@H](O)C2)CC1)N(C)C [Example 116] | -1% | ≤ 100 nM | – |
| CC[C@H](COc1cccnc1C1CCN(C(=O)[C@@H](Cc2ccc(Cl)cc2Cl)NC(=O)N2CC[C@H](OC(C)=O)C2)CC1)N(C)C [Example 117] | 0% | ≤ 100 nM | – |
| C#CC1(O)CN(C(=O)N[C@H](Cc2ccc(Cl)cc2Cl)C(=O)N2CCC(c3ncccc3OC[C@@H](CC)N(C)C)CC2)C1 [Example 118] | 11% | ≤ 100 nM | – |
| CC[C@H](COc1cccnc1C1CCN(C(=O)[C@@H](Cc2ccc(Cl)cc2Cl)NC(=O)N2CC[C@@H](OC(C)=O)C2)CC1)N(C)C [Example 120] | 5% | ≤ 100 nM | – |
| CC[C@H](COc1cccnc1C1CCN(C(=O)[C@@H](Cc2ccc(Cl)cc2Cl)NC(=O)N2CCC[C@@H]2C(C)(C)O)CC1)N(C)C [Example 121] | -6% | ≤ 100 nM | – |
| CC[C@H](COc1cccnc1C1CCN(C(=O)[C@@H](Cc2ccc(Cl)cc2Cl)NC(=O)N2CC(O)(C(C)C)C2)CC1)N(C)C [Example 122] | 0% | ≤ 100 nM | – |
| CC[C@H](COc1cccnc1C1CCN(C(=O)[C@@H](Cc2ccc(Cl)cc2Cl)NC(=O)N2CC(O)(C3CC3)C2)CC1)N(C)C [Example 123] | 3% | ≤ 100 nM | – |
| CC[C@H](COc1cccnc1C1CCN(C(=O)[C@@H](Cc2ccc(Cl)cc2Cl)NC(=O)N2CCCC(C)(O)C2)CC1)N(C)C (stereo partly shown) [Example 125] | -8% | ≤ 100 nM | – |
| CC[C@H](COc1cccnc1C1CCN(C(=O)[C@@H](Cc2ccc(Cl)cc2Cl)NC(=O)N2CCC[C@H]2C(C)(C)O)CC1)N(C)C [Example 126] | -8% | ≤ 100 nM | – |
| CC[C@H](COc1cccnc1C1CCN(C(=O)[C@@H](Cc2ccc(Cl)cc2Cl)NC(=O)N2CC[C@H]2CO)CC1)N(C)C [Example 127] | -3% | ≤ 100 nM | – |
| CC[C@H](COc1cccnc1C1CCN(C(=O)[C@@H](Cc2ccc(Cl)cc2Cl)NC(=O)N2CCC(O)(C(F)(F)F)C2)CC1)N(C)C (stereo partly shown) [Example 128] | -8% | ≤ 100 nM | – |
| CC[C@H](COc1cccnc1C1CCN(C(=O)[C@@H](Cc2ccc(Cl)cc2Cl)NC(=O)N2CC(O)(C(F)(F)F)C2)CC1)N(C)C [Example 129] | -5% | ≤ 100 nM | – |
| CC[C@H](COc1cccnc1C1CCN(C(=O)[C@@H](Cc2ccc(Cl)cc2Cl)NC(=O)N2CCC(O)(CC3CC3)C2)CC1)N(C)C (stereo partly shown) [Example 130] | -2% | ≤ 100 nM | – |
| CC[C@H](COc1cccnc1C1CCN(C(=O)[C@@H](Cc2ccc(Cl)cc2Cl)NC(=O)N2CC[C@@H](N)C2)CC1)N(C)C [Example 131] | -2% | ≤ 100 nM | – |
| CC[C@H](COc1cccnc1C1CCN(C(=O)[C@@H](Cc2ccc(Cl)cc2Cl)NC(=O)N2CC[C@@H](N(C)C)C2)CC1)N(C)C [Example 132] | -4% | ≤ 100 nM | – |
| CC[C@H](COc1cccnc1C1CCN(C(=O)[C@@H](Cc2ccc(Cl)cc2Cl)NC(=O)N(C)C2COC2)CC1)N(C)C [Example 133] | -6% | ≤ 100 nM | – |
| CC[C@H](COc1cccnc1C1CCN(C(=O)[C@@H](Cc2ccc(Cl)cc2Cl)NC(=O)N(C)CC2(C)COC2)CC1)N(C)C [Example 134] | -2% | ≤ 100 nM | – |
| CC[C@@H](CN(C)C)Oc1cccnc1C1CCN(C(=O)[C@@H](Cc2ccc(Cl)cc2Cl)NC(=O)N(C)CC)CC1 [Example 135] | 3% | ≤ 100 nM | – |
| CC[C@@H](CN(C)C)Oc1cccnc1C1CCN(C(=O)[C@@H](Cc2ccc(Cl)cc2Cl)NC(=O)N2CC(O)C2)CC1 [Example 136] | 10% | ≤ 100 nM | – |
| CC[C@@H](CN(C)C)Oc1cccnc1C1CCN(C(=O)[C@@H](Cc2ccc(Cl)cc2Cl)NC(=O)N2CC[C@H](O)C2)CC1 [Example 137] | 8% | ≤ 100 nM | – |
| CC[C@@H](CN(C)C)Oc1cccnc1C1CCN(C(=O)[C@@H](Cc2ccc(Cl)cc2Cl)NC(=O)N(C)CCOC)CC1 [Example 138] | 9% | ≤ 100 nM | – |

More lines, now with the values ahead:

| Emax [1] | IC50 [2] | EC50 ([1]; cAMP production, membrane preparations from HEK293 cells expressing human MC-4R, read-out: hMC-4R functional assay EC50) | SMILES |
| --- | --- | --- | --- |
| 0% | ≤ 100 nM | – | CC[C@H](COc1cccnc1C1CCN(C(=O)[C@@H](Cc2ccc(Cl)cc2Cl)NC(=O)N(CCOC)CCOC)CC1)N1CCCC1 [Example 85] |
| 0% | ≤ 100 nM | – | CC[C@H](COc1cccnc1C1CCN(C(=O)[C@@H](Cc2ccc(Cl)cc2Cl)NC(=O)N(C)CCO)CC1)N1CCCC1 [Example 86] |
| 0% | ≤ 100 nM | – | CC[C@H](COc1cccnc1C1CCN(C(=O)[C@@H](Cc2ccc(Cl)cc2Cl)NC(=O)N(C)CCOC)CC1)N1CCCC1 [Example 87] |
| 0% | ≤ 100 nM | – | CC[C@H](COc1cccnc1C1CCN(C(=O)[C@@H](Cc2ccc(Cl)cc2Cl)NC(=O)N2CCSC2)CC1)N1CCCC1 [Example 88] |
| 0% | ≤ 100 nM | – | CC[C@H](COc1cccnc1C1CCN(C(=O)[C@@H](Cc2ccc(Cl)cc2Cl)NC(=O)N2CC[C@H](O)C2)CC1)N1CCCC1 [Example 89] |
| 0% | ≤ 100 nM | – | CC[C@H](COc1cccnc1C1CCN(C(=O)[C@@H](Cc2ccc(Cl)cc2Cl)NC(=O)N2CC[C@H](F)C2)CC1)N1CCCC1 [Example 90] |
| 0% | ≤ 100 nM | – | CC[C@H](COc1cccnc1C1CCN(C(=O)[C@@H](Cc2ccc(Cl)cc2Cl)NC(=O)N2CCOCC2)CC1)N1CCCC1 [Example 91] |
| 0% | ≤ 100 nM | – | CC[C@H](COc1cccnc1C1CCN(C(=O)[C@@H](Cc2ccc(Cl)cc2Cl)NC(=O)N2CCOC[C@@H]2C)CC1)N1CCCC1 [Example 92] |
| 0% | ≤ 100 nM | – | CC[C@H](COc1cccnc1C1CCN(C(=O)[C@@H](Cc2ccc(Cl)cc2Cl)NC(=O)N2C[C@@H](C)O[C@@H](C)C2)CC1)N1CCCC1 [Example 93] |
| 0% | ≤ 100 nM | – | CC[C@H](COc1cccnc1C1CCN(C(=O)[C@@H](Cc2ccc(Cl)cc2Cl)NC(=O)N2CCCO2)CC1)N1CCCC1 [Example 94] |
| 0% | ≤ 100 nM | – | CC[C@H](COc1cccnc1C1CCN(C(=O)[C@@H](Cc2ccc(Cl)cc2Cl)NC(=O)N2CCC=N2)CC1)N1CCCC1 [Example 95] |
| 0% | ≤ 100 nM | – | CC[C@H](COc1cccnc1C1CCN(C(=O)[C@@H](Cc2ccc(Cl)cc2Cl)NC(=O)N2CCC(O)CC2)CC1)N1CCCC1 [Example 96] |
| 8% | ≤ 100 nM | – | CC[C@H](COc1cccnc1C1CCN(C(=O)[C@@H](Cc2ccc(Cl)cc2Cl)NC(=O)N2C[C@H]3C[C@H]3C2)CC1)N1CCCC1 [Example 97] |
| 13% | ≤ 100 nM | – | CC[C@H](COc1cccnc1C1CCN(C(=O)[C@@H](Cc2ccc(Cl)cc2Cl)NC(=O)N2CC(OC)C2)CC1)N1CCCC1 [Example 98] |
| 0% | ≤ 100 nM | – | CC[C@H](COc1cccnc1C1CCN(C(=O)[C@@H](Cc2ccc(Cl)cc2Cl)NC(=O)N2CC(C)(O)C2)CC1)N1CCCC1 [Example 99] |
| -7% | ≤ 100 nM | – | CC[C@H](COc1cccnc1C1CCN(C(=O)[C@@H](Cc2ccc(Cl)cc2Cl)NC(=O)N2CC(OC(C)=O)C2)CC1)N1CCCC1 [Example 100] |
| 5% | ≤ 100 nM | – | CC[C@H](COc1cccnc1C1CCN(C(=O)[C@@H](Cc2ccc(Cl)cc2Cl)NC(=O)N(C)CC)CC1)N(C)C [Example 101] |
| -1% | ≤ 100 nM | – | CC[C@H](COc1cccnc1C1CCN(C(=O)[C@@H](Cc2ccc(Cl)cc2Cl)NC(=O)N2CC(O)C2)CC1)N(C)C [Example 102] |
| -9% | ≤ 100 nM | ≤ 100 nM | CC[C@H](COc1cccnc1C1CCN(C(=O)[C@@H](Cc2ccc(Cl)cc2Cl)NC(=O)N2CC[C@H](O)C2)CC1)N(C)C [Example 103] |
| -3% | ≤ 100 nM | – | CC[C@H](COc1cccnc1C1CCN(C(=O)[C@@H](Cc2ccc(Cl)cc2Cl)NC(=O)N2CCC[C@H](O)C2)CC1)N(C)C [Example 105] |
| -1% | ≤ 100 nM | – | CC[C@H](COc1cccnc1C1CCN(C(=O)[C@@H](Cc2ccc(Cl)cc2Cl)NC(=O)N2CCC[C@H]2CO)CC1)N(C)C [Example 106] |
| -2% | ≤ 100 nM | – | CC[C@H](COc1cccnc1C1CCN(C(=O)[C@@H](Cc2ccc(Cl)cc2Cl)NC(=O)N2CCC[C@@H]2CO)CC1)N(C)C [Example 107] |
| 0% | ≤ 100 nM | – | CC[C@H](COc1cccnc1C1CCN(C(=O)[C@@H](Cc2ccc(Cl)cc2Cl)NC(=O)N2CC[C@@H](OC)C2)CC1)N(C)C [Example 108] |
| -11% | ≤ 100 nM | – | CC[C@H](COc1cccnc1C1CCN(C(=O)[C@@H](Cc2ccc(Cl)cc2Cl)NC(=O)N2CC[C@H](OC)C2)CC1)N(C)C [Example 109] |
| 0% | ≤ 100 nM | – | CC[C@H](COc1cccnc1C1CCN(C(=O)[C@@H](Cc2ccc(Cl)cc2Cl)NC(=O)N2CCC(C)(O)C2)CC1)N(C)C (stereo partly shown) [Example 110] |
| -23% | ≤ 100 nM | – | CC[C@H](COc1cccnc1C1CCN(C(=O)[C@@H](Cc2ccc(Cl)cc2Cl)NC(=O)N(C)CC(C)(C)O)CC1)N(C)C [Example 111] |
| -8% | ≤ 100 nM | – | CC[C@H](COc1cccnc1C1CCN(C(=O)[C@@H](Cc2ccc(Cl)cc2Cl)NC(=O)N2CCC(C)(O)CC2)CC1)N(C)C [Example 112] |
| -14% | ≤ 100 nM | – | CC[C@H](COc1cccnc1C1CCN(C(=O)[C@@H](Cc2ccc(Cl)cc2Cl)NC(=O)N2CCC[C@@H](O)C2)CC1)N(C)C [Example 113] |
